The text below walks through data of ChEMBL document CHEMBL5260814, “Design strategies in the prodrugs of HIV-1 protease inhibitors to improve the pharmaceutical properties” (Eur J Med Chem, 2017).

Data set [1] has as its target T1, Peptidyl-prolyl cis-trans isomerase FKBP1A (Homo sapiens, UniProt P62942). Description: Inhibition of FKBP12 (unknown origin).
The nature of data set [2]: Half life in mouse plasma at 10 mg/kg, ip measured after 12 hrs. It is filed as ADME, organism-based.
Data set [3] addresses Human immunodeficiency virus type 1 protease (Human immunodeficiency virus 1, UniProt Q72874). Description: Inhibition of HIV-1 protease by FRET-based assay.
Data set [4] concerns the target T1, Peptidyl-prolyl cis-trans isomerase FKBP1A. Description: Inhibition of FKBP12 (unknown origin) measured for 6 hrs relative to control. Particulars: concentration not given here.
A short description of data set [5]: Half life in mouse plasma at 10 mg/kg, ip measured after 3 hrs. It is filed as ADME, organism-based.

For orientation: IC50 means the concentration at which inhibition is half-maximal. A word on the half-life: it is the time needed for the level to fall by half in the phase considered. One may read the inhibition as the percentage by which the read-out fell short of the control. Low values mean little suppression, high ones strong suppression.

Structures are written as SMILES.

T1 sequence (P62942 whole entry): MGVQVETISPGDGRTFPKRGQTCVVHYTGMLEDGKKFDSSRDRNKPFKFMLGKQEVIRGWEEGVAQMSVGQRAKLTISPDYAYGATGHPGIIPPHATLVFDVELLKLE

Regarding `CCC(C)(C)C(=O)C(=O)N1CCCCC1C(=O)OC(CCc1ccc(OC)c(OC)c1)c1cccc(NC(=O)CCC(=O)N[C@@H](Cc2ccccc2)[C@H](O)CN(CC(C)C)S(=O)(=O)c2ccc(OC)cc2)c1` (some centres not stated), the IC50 was found to be 11.8 nM in data set [1] and 9.8 nM in data set [3]. The same compound had a half-life in data set [2] of more than 540 min. The inhibition in data set [4] stood at 100%.

Compound `COc1ccc(S(=O)(=O)N(CC(C)C)C[C@@H](O)[C@H](Cc2ccccc2)NC(=O)O[C@H]2CCOC2)cc1` had a half-life in data set [5] of 30 min. The IC50 in data set [3] came to 4.2 nM. In addition, the inhibition in data set [4] was found to be 100%.
